# From patent publication US5672715A, “Herbicidal substituted 3-aryl-pyrazoles” (Monsanto Company, priority 1995, dated 1997)
# Values joined by “and” are separate entries in the source; they are usually repeats but may differ in a detail not shown here. Equal entries are not always repeated.
# Tests used:
# Format in all cases: in vivo
# Wild Oats [1] = assay: pre-emergence herbicide test; settings: 0.25 lb/A; for inhibition at 280.212 g/ha: Avena fatua, pre-emergence, read-out: % plant inhibition
# Method: (§1) Topsoil was placed in an aluminum pan and compacted to a depth of 1.3 to 1.6 cm from the top of the pan. On the top of the soil was placed a predetermined number of seeds of each of several monocotyledonous and dicotyledonous annual plant species and/or vegetative propagules of various perennial plant species. The pan was then level filled with a cover layer of topsoil to which was added a known amount of active ingredient either prior to or after application of the cover layer. The active ingredient was dissolved or suspended in an organic solvent, e.g., acetone, or water as carrier for application to the cover layer. The pans were moved to a greenhouse bench where they were thereafter watered from below as needed to give adequate moisture for germination and growth. In some cases, an initial overhead irrigation of 1/4 inch of water was applied immediately after treatment.
# (§2) Approximately 14 days after seeding and treating, the pans were observed and the results (% inhibition) were recorded.
# (§3) The tables below summarize the results of the pre-emergence herbicidal activity tests of compounds of this invention tested with warm season plants (Tables 2a-2d) and cool season plants (Tables 3a and 3b). The herbicidal rating shown in these tables is the percent inhibition of each plant species. The plant species usually regarded as weeds are identified in the tables by single letter headings and crop species identified by two letter headings both headings being above the columns in accordance with the following legend: […]
# Downy Brome [2] = assay: pre-emergence herbicide test; settings: 0.25 lb/A; for inhibition at 280.212 g/ha: Bromus tectorum, pre-emergence, read-out: % plant inhibition
# Method: as §1, §2, §3
# Barnyardgrass [3] = assay: pre-emergence herbicide test; settings: Echinochloa crus-galli, pre-emergence, 0.25 lb/A; read-out: % plant inhibition
# Method: as §1, §2, §3
# Wheat [4] = assay: pre-emergence herbicide test; settings: 0.25 lb/A
# Method: as §1, §2, §3
# Morning Glory [5] = assay: pre-emergence herbicide test; settings: 0.25 lb/A
# Method: as §1, §2, §3
# Green Foxtail [6] = assay: pre-emergence herbicide test; settings: Setaria viridis, pre-emergence; 0.25 lb/A; read-out: % plant inhibition
# Method: as §1, §2, §3
# Common Chickweed [7] = assay: pre-emergence herbicide test; settings: pre-emergence, 0.25 lb/A; read-out: % plant inhibition
# Method: as §1, §2, §3
# Corn [8] = assay: pre-emergence herbicide test; settings: 0.25 lb/A
# Method: as §1, §2, §3
# Bedstraw Catchweed [9] = assay: pre-emergence herbicide test; settings: 0.25 lb/A; for inhibition at 280.212 g/ha: Galium aparine, pre-emergence, read-out: % plant inhibition
# Method: as §1, §2, §3
# Birdseye Speedwell [10] = assay: pre-emergence herbicide test; settings: pre-emergence, 0.25 lb/A; read-out: % plant inhibition
# Method: as §1, §2, §3
# Blackgrass [11] = assay: pre-emergence herbicide test; settings: Alopecurus myosuroides, pre-emergence, 0.25 lb/A; read-out: % plant inhibition
# Method: as §1, §2, §3
# Rape [12] = assay: pre-emergence herbicide test; settings: 0.25 lb/A; for inhibition at 280.212 g/ha: pre-emergence, read-out: % plant inhibition
# Method: as §1, §2, §3
# Giant Foxtail [13] = assay: pre-emergence herbicide test; settings: Setaria faberi, pre-emergence, 0.25 lb/A; read-out: % plant inhibition
# Method: as §1, §2, §3
# Soybean [14] = assay: pre-emergence herbicide test; settings: 0.25 lb/A
# Method: as §1, §2, §3
# Wild Oats [15] = assay: post-emergence herbicide test; settings: Avena fatua, post-emergence, 0.25 lb/A; read-out: % plant inhibition
# Text: (§4) Topsoil was placed in aluminum pans having holes in the bottom and compacted to a depth of 1.3 to 1.6 cm from the top of the pan. A predetermined number of seeds of each of several dicotyledonous and monocotyledonous annual plant species and/or vegetative propagules for the perennial plant species were placed on the soil and pressed into the soil surface. The seeds and/or vegetative propagules were covered with soil and leveled. The pans were then placed on a bench in the greenhouse and watered either from overheard irrigation or by subirrigation as needed. After the plants reach the desired age (two to three weeks), each pan, is removed individually to a spraying chamber and sprayed by means of an atomizer, operating at a spray pressure of 170.3 kPa […] at the application rates noted. In the spray solution was an amount of an emulsifying agent mixture to give a spray solution or suspension which contains about 0.4% by volume of the emulsifier. The spray solution or suspension contained a sufficient amount of the candidate chemical in order to give application rates of the active ingredient corresponding to those shown in Tables 4 and 5, while applying a total amount of solution or suspension equivalent to 1870 L/Ha (200 gallons/acre). […] The post-emergent herbicidal activity shown in these tables is the percent inhibition of each plant species. Testing with warm season and cool season plants is shown in tables 4a-4d and […], respectively.
# Downy Brome [16] = assay: post-emergence herbicide test; settings: Bromus tectorum, post-emergence, 0.25 lb/A; read-out: % plant inhibition
# Text: as §4
# Barnyardgrass [17] = assay: post-emergence herbicide test; settings: Echinochloa crus-galli, post-emergence, 0.25 lb/A; read-out: % plant inhibition
# Text: as §4
# Wheat [18] = assay: post-emergence herbicide test; settings: Triticum aestivum, post-emergence, 0.25 lb/A; read-out: % plant inhibition
# Text: as §4
# Morning Glory [19] = assay: post-emergence herbicide test; settings: Ipomoea, post-emergence, 0.25 lb/A; read-out: % plant inhibition
# Text: as §4
# Green Foxtail [20] = assay: post-emergence herbicide test; settings: Setaria viridis, post-emergence, 0.25 lb/A; read-out: % plant inhibition
# Text: as §4
# Seedling Johnsongrass [21] = assay: post-emergence herbicide test; settings: 0.25 lb/A; for inhibition at 280.212 g/ha: Sorghum halepense, post-emergence, read-out: % plant inhibition
# Text: as §4
# Common Chickweed [22] = assay: post-emergence herbicide test; settings: post-emergence, 0.25 lb/A; read-out: % plant inhibition
# Text: as §4
# Corn [23] = assay: post-emergence herbicide test; settings: 0.25 lb/A; for inhibition at 280.212 g/ha: Zea mays, post-emergence, read-out: % plant inhibition
# Text: as §4
# Bedstraw Catchweed [24] = assay: post-emergence herbicide test; settings: 0.25 lb/A
# Text: as §4
# Cocklebur [25] = assay: post-emergence herbicide test; settings: Xanthium strumarium, post-emergence, 0.25 lb/A; read-out: % plant inhibition
# Text: as §4
# Birdseye Speedwell [26] = assay: post-emergence herbicide test; settings: 0.25 lb/A
# Text: as §4
# Blackgrass [27] = assay: post-emergence herbicide test; settings: Alopecurus myosuroides, post-emergence, 0.25 lb/A; read-out: % plant inhibition
# Text: as §4
# Rape [28] = assay: post-emergence herbicide test; settings: post-emergence, 0.25 lb/A; read-out: % plant inhibition
# Text: as §4
# Velvetleaf [29] = assay: post-emergence herbicide test; settings: 0.25 lb/A; for inhibition at 280.212 g/ha: Abutilon theophrasti, post-emergence, read-out: % plant inhibition
# Text: as §4
# Giant Foxtail [30] = assay: post-emergence herbicide test; settings: Setaria faberi, post-emergence, 0.25 lb/A; read-out: % plant inhibition
# Text: as §4
# Soybean [31] = assay: post-emergence herbicide test; settings: Glycine max, post-emergence, 0.25 lb/A; read-out: % plant inhibition
# Text: as §4
# Seedling Johnsongrass [32] = assay: pre-emergence herbicide test; settings: Sorghum halepense, pre-emergence, 0.25 lb/A; read-out: % plant inhibition
# Method: as §1, §2, §3
# Cocklebur [33] = assay: pre-emergence herbicide test; settings: 0.25 lb/A
# Method: as §1, §2, §3
# Velvetleaf [34] = assay: pre-emergence herbicide test; settings: 0.25 lb/A
# Method: as §1, §2, §3
smiles,measurement,setting,value
"Cc1c(-c2cc(C(=O)O)c(Cl)cc2F)nn(C)c1C(F)(F)F [Compound 2, 2-Chloro-5-[1,4-dimethyl-5-(trifluoromethyl)-1H-pyrazol-3-yl]-4-fluorobenzoic acid]",inhibition at 280.212 g/ha,Wild Oats [1],15%
same,inhibition at 280.212 g/ha,Downy Brome [2],25%
same,inhibition at 280.212 g/ha,Barnyardgrass [3],0%
same,inhibition at 280.212 g/ha,"Wheat [4]; Triticum aestivum, pre-emergence, read-out: % plant inhibition",7%
same,% plant inhibition,Morning Glory [5],30%
same,inhibition at 280.212 g/ha,"Morning Glory [5]; Ipomoea, pre-emergence, read-out: % plant inhibition",35%
same,inhibition at 280.212 g/ha,Green Foxtail [6],25%
same,inhibition at 280.212 g/ha,Common Chickweed [7],60%
same,inhibition at 280.212 g/ha,"Corn [8]; Zea mays, pre-emergence, read-out: % plant inhibition",0%
same,inhibition at 280.212 g/ha,Bedstraw Catchweed [9],50%
same,inhibition at 280.212 g/ha,Birdseye Speedwell [10],55%
same,inhibition at 280.212 g/ha,Blackgrass [11],15%
same,inhibition at 280.212 g/ha,Rape [12],20%
same,inhibition at 280.212 g/ha,Giant Foxtail [13],0%
same,% plant inhibition,Soybean [14],5% and 0%
same,inhibition at 280.212 g/ha,Wild Oats [15],0%
same,inhibition at 280.212 g/ha,Downy Brome [16],0%
same,inhibition at 280.212 g/ha,Barnyardgrass [17],15%
same,inhibition at 280.212 g/ha,Wheat [18],0%
same,inhibition at 280.212 g/ha,Morning Glory [19],45%
same,inhibition at 280.212 g/ha,Green Foxtail [20],15%
same,inhibition at 280.212 g/ha,Seedling Johnsongrass [21],20%
same,inhibition at 280.212 g/ha,Common Chickweed [22],70%
same,inhibition at 280.212 g/ha,Corn [23],3%
same,inhibition at 280.212 g/ha,"Bedstraw Catchweed [24]; Galium aparine, post-emergence, read-out: % plant inhibition",50%
same,inhibition at 280.212 g/ha,Cocklebur [25],70%
same,inhibition at 280.212 g/ha,"Birdseye Speedwell [26]; post-emergence, read-out: % plant inhibition",80%
same,inhibition at 280.212 g/ha,Blackgrass [27],10%
same,inhibition at 280.212 g/ha,Rape [28],0%
same,inhibition at 280.212 g/ha,Velvetleaf [29],85%
same,inhibition at 280.212 g/ha,Giant Foxtail [30],0%
same,inhibition at 280.212 g/ha,Soybean [31],20%
"Cc1c(-c2cc(C(=O)OC(C)C)c(Cl)cc2F)nn(C)c1C(F)(F)F [Compound 8, 2-Chloro-5-[1,4-dimethyl-5-(trifluoromethyl)-1H-pyrazol-3-yl]-4-fluorobenzoic acid, 1-methylethyl ester]",% plant inhibition,Wild Oats [1],100%
same,inhibition at 280.212 g/ha,Wild Oats [1],95%
same,% plant inhibition,Downy Brome [2],99%
same,inhibition at 280.212 g/ha,Downy Brome [2],100%
same,inhibition at 280.212 g/ha,Barnyardgrass [3],100%
same,% plant inhibition,Wheat [4],0%
same,% plant inhibition,Morning Glory [5],100%
same,inhibition at 280.212 g/ha,Green Foxtail [6],100%
same,inhibition at 280.212 g/ha,Seedling Johnsongrass [32],100%
same,inhibition at 280.212 g/ha,Common Chickweed [7],100%
same,% plant inhibition,Corn [8],85% and 90% and 70% and 100%
same,% plant inhibition,Bedstraw Catchweed [9],100%
same,inhibition at 280.212 g/ha,Bedstraw Catchweed [9],90%
same,% plant inhibition,Cocklebur [33],80% and 75% and 99% and 85%
same,inhibition at 280.212 g/ha,Birdseye Speedwell [10],100%
same,inhibition at 280.212 g/ha,Blackgrass [11],100%
same,% plant inhibition,Rape [12],100% and 90%
same,inhibition at 280.212 g/ha,Rape [12],98%
same,% plant inhibition,Velvetleaf [34],100%
same,inhibition at 280.212 g/ha,"Velvetleaf [34]; Abutilon theophrasti, pre-emergence, read-out: % plant inhibition",98%
same,inhibition at 280.212 g/ha,Giant Foxtail [13],100%
same,% plant inhibition,Seedling Johnsongrass [21],90%
same,inhibition at 280.212 g/ha,Seedling Johnsongrass [21],70%
same,% plant inhibition,Corn [23],20%
same,inhibition at 280.212 g/ha,Corn [23],15%
same,% plant inhibition,Bedstraw Catchweed [24],60% and 95%
same,% plant inhibition,Birdseye Speedwell [26],55%
same,% plant inhibition,Velvetleaf [29],99%
same,inhibition at 280.212 g/ha,Velvetleaf [29],90%
